“Also recorded” adds a separate entry of the source. Ends that are not written are not given here.
Molecular target: HLA-A24 molecule (product of the HLA-A*2402 gene) (Homo sapiens, UniProt P04439, D101N/D140Y/D185E/E176V/E190D/F33S/G103R/G107R/I119L/I121M/I306V/K335N/L105A/L180Q/L300P/N151K/N90K/Q86E/Q94H/R106L/R138H/R89G/T104I/T345S/V100E/W191G/Y123F)
Test: Experiment of binding peptide to HLA-A24 molecule (C1R-A24 cells, flow cytometry)
Details: not given

| Sequence | binding in HLA molecule binding experiment |
| --- | --- |
| FWAKMMYNF [SEQ ID NO: 14] | high binding |

System: peptide-loaded C1R-A24 cells and T2-A24 cells
Test: Cytotoxic T-cell induction experiment (51Cr release, human PBMCs)
Format: cell-based
Details: peptide 1 μM; blood samples from 8 (or 7) people; E/T ratio 10 to 20; FIG. 2 and FIG. 3
Experimental: The following experiment was carried out using a human blood sample.
Blood was sampled from a hepatitis C patient or a healthy individual from whom informed consent had been obtained in advance.
To blood cells (Peripheral blood mononuclear cells: PBMCs) sown on 96 well plates peptides of SEQ ID NOS: 1 to 14 were added weekly for 5 weeks so as to give final concentrations of 1 μM, and cytotoxic T-cells were activated in media to which was added 10% FCS and 5 ng/mL of IL-2, thus giving T-cell samples.
Cells were labeled with ^51Cr by adding the sodium salt of ^51Cr (sodium chromate) to C1R-A24 cells and T2-A24 cells (human B/T cultured cell strain having no TAP peptide transporter and expressing the HLA-A*2402 gene: supplied by Dr. Tsuboi, Faculty of Medicine, Osaka University) at 37° C. or 26° C. for 1 hour. Peptides of SEQ ID NOS: 1 to 14 were added thereto so as to make final concentrations of 1 μM, thus forming target cells having each peptide binding to the surface of the cells.
After the cytotoxic T-cells and the target cells prepared above were mixed at an E/T ratio (effector to target) of 10 to 20 and allowed to stand at 37° C. for 3.5 hours, the radioactivity of ^51Cr released in the culture supernatant was measured.

| Sequence | capability of inducing cytotoxic T-cells |
| --- | --- |
| FWAKMMYNF [SEQ ID NO: 14] | did not show a capability of inducing cytotoxic T-cells; also recorded: none of the blood samples showed a capability of inducing cytotoxic T-cells |

System: HCV genome-expressing RzM6 cells
Test: Cytolysis assay against HCV genome-expressing cells
Format: cell-based, human
Details: RzM6 cells vs HepG2 control; E/T ratio 10; 3 hours; FIG. 4
Source text: RzM6 cells were formed by transfecting HepG2, which is a human liver cell strain, with an HCV gene that had been modified so as to be able to conditionally induce expression of an HCV1b full genome (AY045702) in the presence of Cre (Activation of the CK1-CDK-Rb-E2F pathway in full genome hepatitis C virus-expressing cells. Tsukiyama-Kohara et al., J. Biol. Chem. 279, 14531-14541, 2004, RzM6 being supplied by Dr. Michinori Obara, Tokyo Metropolitan Institute of Medical Science).
In the HCV expression method, since the same RzM6 cells are doubly transfected with the Cre gene inserted in a conditional expression cassette arranged downstream of a Tamoxifen-inducible promoter, by adding tamoxifen, expression of Cre is induced, and as a result expression of the HCV gene can be induced. The RzM6 cells for which expression of the HCV gene was induced were labeled with ^51Cr by the same method as for the C1R-A24 cells, thus serving as target cells.
The cytotoxic T-cells prepared above and RzM6 target cells or HepG2 cells with no HCV introduced as a control were mixed at an E/T ratio of 10 and allowed to stand at 37° C. for 3 hours, and the radioactivity of ^51Cr released into the culture supernatant was measured.

| Sequence | cytolytic activity specific to HCV-expressing cells by the cytotoxic T-cells |
| --- | --- |
| ALYGVYPLL [SEQ ID NO: 5] | a cytolytic activity specific to HCV-expressing cells by the cytotoxic T-cells was exhibited |
| AYSQQTRGL [SEQ ID NO: 8] | a cytolytic activity specific to HCV-expressing cells by the cytotoxic T-cells was exhibited |
| ILMTHFFSI [SEQ ID NO: 13] | a cytolytic activity specific to HCV-expressing cells by the cytotoxic T-cells was exhibited |
| ILPCSFTTL [SEQ ID NO: 4] | a cytolytic activity specific to HCV-expressing cells by the cytotoxic T-cells was exhibited |
| ITYSTYCKF [SEQ ID NO: 9] | a cytolytic activity specific to HCV-expressing cells by the cytotoxic T-cells was exhibited |
| RYAPACKPL [SEQ ID NO: 10] | a cytolytic activity specific to HCV-expressing cells by the cytotoxic T-cells was exhibited |
| SYTWTGALI [SEQ ID NO: 12] | a cytolytic activity specific to HCV-expressing cells by the cytotoxic T-cells was exhibited |
| WHYPCTVNF [SEQ ID NO: 2] | a cytolytic activity specific to HCV-expressing cells by the cytotoxic T-cells was exhibited |

From patent US20110206711A1, “METHOD FOR INDUCING CYTOTOXIC T-CELLS, CYTOTOXIC T-CELL INDUCER, AND PHARMACEUTICAL COMPOSITION AND VACCINE EMPLOYING SAME” (priority 2006, published 2011)
